Bounds are passed on as bounds.

For the experiment, the target named is human autotaxin (ATX) (Homo sapiens (Human), UniProt Q13822). The experiment in a line: Human Autotaxin Assay. The format is biochemical. The conditions noted are these: concentrated conditioned media from Hep3B cells; LPC substrate, choline release. As for the experimental part: ATX activity is assayed in concentrated conditioned media from Hep3B human hepatocellular carcinoma cells by measuring the amount of choline released from the substrate, lysophosphatidylcholine (LPC) as it is cleaved to LPA. Conditioned media is collected from confluent Hep3B cells and concentrated 20-fold using Centriprep-30 filter devices (Millipore). To assay for autotaxin inhibition, 10-20 μL of the concentrated conditioned media is incubated with 2.5 μL of a test compound in DMSO and 72.5-82.5 μL lyso-PLD buffer (100 mM Tris pH 9, 500 mM NaCl, 5 mM MgCl2, 5 mM CaCl2, 0.05% Triton X-100 in the presence or absence of 0.2% fatty-acid-free human serum albumin) for 15 min at 37° C. After the 15 min incubation, 5 uL of 2 mM LPC (14:0; Avanti Polar Lipids Cat#855575C) diluted in lyso-PLD buffer is added for a final concentration of 100 uM and the incubation continues for 1.5-3 hours at 37° C.

What is called IC50 is the concentration at which inhibition is half-maximal. A high value points to lower potency. In turn, `Cc1c(Sc2cccc(C(=O)O)c2)c2ccc(Cl)c(F)c2n1CC(=O)N1CCC(CCc2ccccc2)C1` (stereo not drawn) [Compound 1-76, 3-((6-Chloro-7-fluoro-2-methyl-1-(2-oxo-2-(3-phenethylpyrrolidin-1-yl)ethyl)-1H-indol-3-yl)thio)benzoic acid] showed an IC50 of 500 to 3000 nM. Take `CCCC1CCN(C(=O)Cn2c(C)c(Sc3cccc(C(=O)O)c3)c3ccc(Cl)c(F)c32)C1` (stereo not drawn) [Compound 1-77, 3-((6-Chloro-7-fluoro-2-methyl-1-(2-oxo-2-(3-propylpyrrolidin-1-yl)ethyl)-1H-indol-3-yl)thio)benzoic acid]: the IC50 is ≤ 500 nM. `Cc1c(Sc2cccc(C(=O)O)c2)c2ccc(Cl)c(F)c2n1CC(=O)N1CCCC1=O` [Compound 1-59, 3-((6-Chloro-7-fluoro-2-methyl-1-(2-oxo-2-(2-oxopyrrolidin-1-yl)ethyl)-1H-indol-3-yl)thio)benzoic acid]: the IC50 lay within 500 to 3000 nM. As to `Cc1c(Sc2cccc(C(=O)O)c2)c2ccc(Cl)c(F)c2n1CC(=O)N1CCC(Cc2ccc(C(F)(F)F)cc2)C1` (stereo not drawn) [Compound 1-78, 3-((6-Chloro-7-fluoro-2-methyl-1-(2-oxo-2-(3-(4-(trifluoromethyl)benzyl)pyrrolidin-1-yl)ethyl)-1H-indol-3-yl)thio)benzoic acid], the half-inhibitory concentration (IC50) lay in the range of 500 to 3000 nM. Turning to `Cc1c(Sc2cccc(C(=O)O)c2)c2ccc(Cl)c(F)c2n1CC(=O)N1CCC2(CC1)CNC(=O)C2` [Compound 1-45, 3-((6-Chloro-7-fluoro-2-methyl-1-(2-oxo-2-(3-oxo-2,8-diazaspiro[4.5]decan-8-yl)ethyl)-1H-indol-3-yl)thio)benzoic acid], the IC50 was ≤ 500 nM.

As for `Cc1c(Sc2cccc(C(=O)O)c2)c2ccc(Cl)c(F)c2n1CC(=O)N1CCc2cc(Cl)ccc21` [Compound 1-71, 3-((6-Chloro-1-(2-(5-chloroindolin-1-yl)-2-oxoethyl)-7-fluoro-2-methyl-1H-indol-3-yl)thio)benzoic acid], the IC50 was ≤ 500 nM. With `Cc1c(Sc2cccc(C(=O)O)c2)c2ccc(Cl)c(F)c2n1CC(=O)N1CC2(CCCC2)c2ccccc21` [Compound 1-39, 3-((6-Chloro-7-fluoro-2-methyl-1-(2-oxo-2-(spiro[cyclopentane-1,3′-indolin]-1′-yl)ethyl)-1H-indol-3-yl)thio)benzoic acid], the 50% inhibitory concentration (IC50) is ≤ 500 nM. Molecule `Cc1c(Sc2cccc(C(=O)O)c2)c2ccc(Cl)c(F)c2n1CC(=O)Nc1ccccc1` [Compound 1-3, 3-((6-Chloro-7-fluoro-2-methyl-1-(2-oxo-2-(phenylamino)ethyl)-1H-indol-3-yl)thio)benzoic acid] registered an IC50 of 500 to 3000 nM.

For the molecule `Cc1c(Sc2cccc(C(=O)O)c2)c2ccc(Cl)c(F)c2n1CC(=O)N1CCc2ccncc21` [Compound 1-97, 3-((6-Chloro-1-(2-(2,3-dihydro-1H-pyrrolo[2,3-c]pyridin-1-yl)-2-oxoethyl)-7-fluoro-2-methyl-1H-indol-3-yl)thio)benzoic acid], the IC50 is ≤ 500 nM.

Take `Cc1c(Sc2cccc(C(=O)O)c2)c2ccc(Cl)c(F)c2n1CC(=O)N1CCC(O)(C(F)(F)F)C1` (stereo not drawn) [Compound 1-37, 3-((6-Chloro-7-fluoro-1-(2-(3-hydroxy-3-(trifluoromethyl)pyrrolidin-1-yl)-2-oxoethyl)-2-methyl-1H-indol-3-yl)thio)benzoic acid]: the IC50 was ≤ 500 nM. Regarding `Cc1c(Sc2cccc(C(=O)O)c2)c2ccc(Cl)c(F)c2n1CC(=O)N1CCc2cccnc21` [Compound 1-72, 3-((6-Chloro-1-(2-(2,3-dihydro-1H-pyrrolo[2,3-b]pyridin-1-yl)-2-oxoethyl)-7-fluoro-2-methyl-1H-indol-3-yl)thio)benzoic acid], the half-maximal inhibitory concentration (IC50) lay within 500 to 3000 nM. In the case of `Cc1c(Sc2cccc(C(=O)O)c2)c2ccc(Cl)c(F)c2n1CC(=O)N1CCCC(Cc2ccc(F)cc2)C1` (stereo not drawn) [Compound 1-15, 3-((6-Chloro-7-fluoro-1-(2-(3-(4-fluorobenzyl)piperidin-1-yl)-2-oxoethyl)-2-methyl-1H-indol-3-yl)thio)benzoic acid], the IC50 lay in the range of 500 to 3000 nM.

The values above are taken from patent US9850203B2, “Autotaxin inhibitor compounds” (PharmAkea, Inc., priority 2013, dated 2017).
